The test system of data set [1] is mouse Factor 11 mRNA. The experiment in a line: Cross-reactive antisense inhibition of murine Factor 11 in primary mouse hepatocytes, 100 nM (Example 9). The data set is classed as cell-based. Conditions: ~24 hours. On the procedure: Antisense oligonucleotides targeted to a murine factor 11 nucleic acid were tested for their effects on Factor 11 mRNA in vitro. Cultured primary mouse hepatocytes at a density of 10,000 cells per well were treated with 100 nM antisense oligonucleotide. After a treatment period of approximately 24 hours, RNA was isolated from the cells and mouse Factor 11 mRNA levels were measured by quantitative real-time PCR. Factor 11 mRNA levels were adjusted according to total RNA content, as measured by RIBOGREEN. Results are presented as percent inhibition of Factor 11, relative to untreated control cells.
The chimeric antisense oligonucleotides in Tables 16 were designed as 5-10-5 MOE gapmers. The gapmers are 20 nucleotides in length, wherein the central gap segment is comprised of 10 2′-deoxynucleotides and is flanked on both sides (in the 5′ and 3′ directions) by wings comprising 5 nucleotides each. Each nucleotide in the 5′ wing segment and each nucleotide in the 3′ wing segment has a 2′-MOE modification. The internucleoside linkages throughout each gapmer are phosphorothioate (P=S) linkages. All cytidine residues throughout each gapmer are 5-methylcytidines. “Mouse target start site” indicates the 5′-most nucleotide to which the gapmer is targeted. “Mouse target stop site” indicates the 3′-most nucleotide to which the gapmer is targeted. All the mouse oligonucleotides listed show cross-reactivity between the mouse Factor 11 mRNA (GENBANK Accession No. NM_028066.1), incorporated herein as SEQ ID NO: 6 and the human Factor 11 mRNA (GENBANK Accession No. NM_000128.3), incorporated herein as SEQ ID NO: 1. “Human Target Start Site” indicates the 5′-most nucleotide in the human mRNA (GENBANK Accession No. NM_000128.3) to which the antisense oligonucleotide is targeted. “Human Target Stop Site” indicates the 3′-most nucleotide in the human mRNA (GENBANK Accession No. NM_000128.3) to which the antisense oligonucleotide is targeted. “Number of mismatches” indicates the mismatches between the mouse oligonucleotide and the human mRNA sequence.

For data set [2], the system named is blood coagulation. The data set can be described thus: PT and aPTT assay in platelet poor plasma (Example 10). The data set is classed as in vivo. The note with it: BALB/c mice. On the procedure: BALB/c mice were injected with 5 mg/kg, 10 mg/kg, 25 mg/kg, or 50 mg/kg of ISIS 404057 or ISIS 404071 twice a week for 3 weeks. A control group of mice was injected with phosphate buffered saline (PBS) twice a week for 3 weeks. Mice were sacrificed 5 days after receiving the last dose. Whole liver was harvested for RNA analysis and plasma was collected for clotting analysis (PT and aPTT) and protein analysis.
Prothrombin Time (PT) and Activated Partial Thromboplastin Time (aPTT) were measured using platelet poor plasma (PPP) from mice treated with ISIS 404057 and ISIS 404071. PT and aPTT values provided in Table 18 are reported as International Normalized Ratio (INR) values. INR values for PT and aPTT were determined by dividing the PT or aPTT value for each experimental group (i.e. 5 mg/kg, 10 mg/kg, 25 mg/kg, and 50 mg/kg treatment with ISIS 404057 or ISIS 404071) by the PT or aPTT for the PBS treated group. This ratio was then raised to the power of the International Sensitivity Index (ISI) of the tissue factor used.

Data set [3] deals with mouse Factor 11 mRNA. The data set can be described thus: Sense-oligonucleotide antidote: Factor 11 mRNA in liver (Example 23). The data set is classed as in vivo, BALB/c mice. How it is done: The effect of the specific sense oligonucleotide to ISIS 404071 as an antidote was tested in BALB/c mice. In a first cohort, ISIS 404071 was administered subcutaneously to BALB/c mice twice a week for three weeks at a dose of 40 mg/kg. In a second cohort, ISIS 404057 was administered subcutaneously to BALB/c mice twice a week for three weeks at a dose of 40 mg/kg. The ISIS 404071 specific antidote, ISIS 418026 ([…]; complementary to ISIS 404071), incorporated herein as SEQ ID NO: 13, was administered to both cohorts subcutaneously in a single injection of 90 mg/kg 48 hours after the final treatment of ISIS 404071 or 404057. In a third cohort, ISIS 404071 was administered subcutaneously to BALB/c mice twice a week for three weeks at a dose of 40 mg/kg. Following the last treatment of ISIS 404071, mice were injected subcutaneously injected with PBS. In a fourth cohort, ISIS 404057 was administered subcutaneously to BALB/c mice twice a week for three weeks at a dose of 40 mg/kg. Following the last treatment of ISIS 404057, mice were injected subcutaneously injected with PBS. Following antidote administration, a set of 4 mice from each cohort were sacrificed at 12 hours, 1 day, 2 days, 3 days, 7 days, and 14 days. Whole liver was collected for RNA analysis and PPP was collected for aPTT analysis.
RNA was extracted from liver tissue for real-time PCR analysis of Factor 11. Results are presented as percent inhibition of Factor 11, relative to PBS control.

The conditions of data set [4]: rat, in vivo, sc, 50 mg/kg.
For data set [5] the following is noted: rat, in vivo, sc, 50 mg/kg. The source holds these as a separate data set.
Method: A control group of four Sprague Dawley rats was injected subcutaneously with PBS twice per week for 6 weeks. Body weight measurements were taken before and throughout the treatment period. Urine samples were taken before the start of treatment. Three days after the last dose, urine samples were taken and the rats were sacrificed. Organ weights were measured and blood was collected for further analysis.
To evaluate the effect of kidney function, plasma concentrations of blood urea nitrogen (BUN) and creatinine were measured using an automated clinical chemistry analyzer (Hitachi Olympus AU400e, Melville, N.Y.).
The conditions of data set [6]: rat, in vivo, sc, 50 mg/kg. This is another data set of the same source.
Data set [7] can be described thus: Collagenase-induced intracerebral hemorrhage model: hemorrhage volume, neurologic deficit score, mortality (Example 25). The data set is classed as in vivo, BALB/c mice. On the procedure:
In a first cohort, ISIS 404071 was administered subcutaneously to BALB/c mice twice a week for two weeks at a dose 40 mg/kg. […] In a third cohort, ISIS 421208 ([…], 8 mismatches to murine Factor 11, incorporated herein as SEQ ID NO: 14) was administered subcutaneously to BALB/c mice twice a week for two weeks at a dose 40 mg/kg. In a fourth cohort, PBS was administered to BALB/c mice twice a week for two weeks.
Two days after receiving their final dose, all mice in all cohorts were anesthetized with […] of avertin. Next, the mice were injected at −1 mm AP, 1 mm R ML, −4 mm DV from bregma flat skull with a 10 μL Hamilton syringe containing 0.075 U collagenase (150 U/mL). Collagenase was delivered over 5 minutes and the needle was kept in place for an additional 5 minutes to prevent reflux. The mice were then analyzed for hemorrhagic size, neurologic deficit score, and mortality.
Table 37 presents the hemorrhage volume detected in mice after collagenase treatment, Table 38 presents the neurologic deficit score of the mice, and Table 39 presents the mortality rate of the mice. Neurological deficit is measured by a standard scoring system where no deficiency is zero and severe deficit is five.

The mark [8] stands for this setting: 5 mg/kg twice a week for 3 weeks.
[9] abbreviates: 10 mg/kg twice a week for 3 weeks.
Where [10] appears, read: 25 mg/kg twice a week for 3 weeks.
[11] abbreviates: 50 mg/kg twice a week for 3 weeks.
Where [12] appears, read: 5-50 mg/kg twice a week for 3 weeks.

The text below walks through data of patent US20230263822A1, “MODULATION OF FACTOR 11 EXPRESSION” (Ionis Pharmaceuticals, Inc., priority 2008, published 2023).

Strand notation (5' to 3'): a small letter for the sugar, then the base; units joined by * are phosphorothioate-linked, units joined directly phosphodiester-linked; [ ] holds rarer units or linkages, { } end groups; capitals alone tell only the bases. e = 2'-O-(2-methoxyethyl) (MOE); [5mC] = 5-methylcytosine; d = 2'-deoxy (DNA)

With “404050 (eT*eG*e[5mC]*eT*eT*dG*dA*dA*dG*dG*dA*dA*dT*dA*dT*e[5mC]*e[5mC]*eA*eG*eA; antisense) [compound 404050]”, the “% Inhibition of mouse Factor 11 mRNA levels” value (shortened to “% Inhibition”) in data set [1] turned out to be 82%.
For the substance “404054 (eT*eA*eG*eT*eT*d[5mC]*dA*dT*dG*d[5mC]*d[5mC]*d[5mC]*dT*dT*d[5mC]*eA*eT*eG*eT*e[5mC]; antisense) [compound 404054]”, in data set [1], the “% Inhibition” value came to 45%.
For the substance “404055 (eT*eG*eT*eT*eA*dT*dA*dG*dT*dT*d[5mC]*dA*dT*dG*d[5mC]*e[5mC]*e[5mC]*eT*eT*e[5mC]; antisense) [compound 404055]”, the “% Inhibition” value in data set [1] stood at 27%.
Still for that read-out and setting: then “404066 (eA*eA*eT*eG*eT*d[5mC]*d[5mC]*d[5mC]*dT*dG*dA*dT*dA*d[5mC]*dA*eA*eG*e[5mC]*e[5mC]*eA; antisense) [compound 404066]”, with 37%.
For the substance “ISIS 404057: antisense oligonucleotide targeted to murine Factor 11 mRNA, TCCTGGCATTCTCGAGCATT, target start site 487 (antisense eT*e[5mC]*e[5mC]*eT*eG*dG*d[5mC]*dA*dT*dT*d[5mC]*dT*d[5mC]*dG*dA*eG*e[5mC]*eA*eT*eT)”, the “PT INR” value in data set [2] (setting [8]) is 1.00; in data set [2] (setting [9]), 0.94; in data set [2] (setting [10]), 1.02; in data set [2] (setting [11]), 1.00. The “aPTT INR” value amounted to 1.07 in data set [2] (setting [8]), 1.19 in data set [2] (setting [9]), 1.27 in data set [2] (setting [10]) and 1.37 in data set [2] (setting [11]). The “PT” value in data set [2] (setting [12]) is “not significantly prolonged”. In addition, the “aPTT” value in data set [2] (setting [12]) was “prolonged in a dose-dependent manner”. Also, the “Percent inhibition of mouse Factor 11 mRNA compared to PBS control” value in data set [3] (3 days after antidote/PBS, antisense 40 mg/kg s.c. twice a week for three weeks, ISIS 418026 90 mg/kg single injection where given) came out at 95%.
In data set [4], “ISIS 416925: MOE gapmer, nucleobases 1275 to 1318 of SEQ ID NO: 1 (Table 8) (antisense GGTGCACAGTTTCTGGCAGG; MOE gapmer, wing and gap sizes not given here)” displayed an ALT of 102 IU/L, an AST of 20 IU/L, an Albumin of 5 and a Bilirubin of 13 mg/dL. In data set [5], the BUN came out at 7 mg/dL and the Creatinine is given as 5 mg/dL. In data set [6], this substance displayed an HCT of 8%, an MCH of 2, an MCHC of 4% and an MCV of 5. Besides, in data set [6], the Platelets is 8 10^3/μL, the RBC was determined as 6, the WBC was 24 nL⁻¹ and the hemoglobin came to 6 g/dL. In data set [6], this substance displayed a lymphocytes of 4%, a monocytes of 23% and a neutrophils of 20%.
In data set [4], “ISIS 416999: MOE gapmer, nucleobases 1275 to 1318 of SEQ ID NO: 1 (Table 8) (antisense GCACAGTTTCTGGCAGGCCT; MOE gapmer, wing and gap sizes not given here)” registered an ALT of 92 IU/L, an AST of 28 IU/L, an Albumin of 5 and a Bilirubin of 54 mg/dL. In data set [5], this substance returned a BUN of 2 mg/dL and a Creatinine of 4 mg/dL. For the same substance, in data set [6], the HCT worked out at 5%, the MCH turned out to be 3, the MCHC is given as 1% and the MCV is listed as 2. In data set [6], the Platelets is 12 10^3/μL, the RBC is 5, the WBC stood at 12 nL⁻¹ and the hemoglobin is 6 g/dL. In data set [6], this substance yielded a lymphocytes of 3%, a monocytes of 20% and a neutrophils of 23%.
In data set [4], “ISIS 417003: MOE gapmer, nucleobases 1275 to 1318 of SEQ ID NO: 1 (Table 8) (antisense TGGTGCACAGTTTCTGGCAG; MOE gapmer, wing and gap sizes not given here)” came in with an ALT of 138 IU/L, an AST of 23 IU/L, an Albumin of 6 and a Bilirubin of 50 mg/dL. In data set [5], this substance had a BUN of 9 mg/dL and a Creatinine of 9 mg/dL. Further, in data set [6], the HCT was determined as 8%, the MCH was 4, the MCHC came out at 4% and the MCV was found to be 6. Further, in data set [6], the Platelets was 19 10^3/μL, the RBC came out at 11, the WBC is 83 nL⁻¹ and the hemoglobin is 11 g/dL. In data set [6], the lymphocytes is listed as 3%, the monocytes is recorded as 6% and the neutrophils came out at 17%.
For “ISIS 418026: ISIS 404071 specific antidote, CCTCTGAAAGTGGATTACCA; complementary to ISIS 404071 (listed as DNA, chemistry not given here)”, the “inhibition of Factor 11 mRNA expression in ISIS 404057 treated mice” value in data set [3] (BALB/c mice, ISIS 404057 40 mg/kg then ISIS 418026 90 mg/kg) was “had no effect on inhibition of Factor 11 mRNA expression”.
Turning to “ISIS 421208: TCGGAAGCGACTCTTATATG, 8 mismatches to murine Factor 11 (listed as DNA, chemistry not given here) [reference compound]”, in data set [7] (40 mg/kg s.c. twice a week for two weeks), the “Hemorrhagic volume after collagenase treatment” value was found to be 41 mm^3. Also, the “Neurologic Deficit Score after collagenase treatment” value in data set [7] (40 mg/kg s.c. twice a week for two weeks, score zero (no deficiency) to five (severe deficit)) is given as 2.0. The “% mortality after collagenase treatment” value in data set [7] (ISIS oligonucleotides 40 mg/kg s.c., warfarin 2 mg/kg intraperitoneally, twice a week for two weeks) was found to be 0%.
